Measurements: patent US11078228B2, “Ectonucleotidase inhibitors and methods of use thereof” (Calithera Biosciences, Inc., priority 2018, dated 2021)

Target: recombinant CD73 (Homo sapiens (Human), UniProt P21589)
Assay: Assay 2: Inhibition of the CD73 enzyme in vitro (0.05 nM CD73, 1 hour 37° C., Malachite Green)
Assay type: biochemical
Settings: 0.05 nM CD73, 50 μM AMP, 1 hour at 37° C.
Procedure: For measurements of soluble CD73 enzyme activity, recombinant CD73 was obtained from R&D Systems, Cat. No. 5795-EN-010. […] Reactions were allowed to proceed for 1 hour at 37° C. before the addition of 100 μL Malachite Green (Cell Signaling Technology, Cat. No. 12776). After 5 minutes at room temperature, absorbance at 630 nm was determined on a microplate spectrophotometer. The concentration of inorganic phosphate was determined using a phosphate standard curve.

Sequence of recombinant CD73 (P21589 27-547): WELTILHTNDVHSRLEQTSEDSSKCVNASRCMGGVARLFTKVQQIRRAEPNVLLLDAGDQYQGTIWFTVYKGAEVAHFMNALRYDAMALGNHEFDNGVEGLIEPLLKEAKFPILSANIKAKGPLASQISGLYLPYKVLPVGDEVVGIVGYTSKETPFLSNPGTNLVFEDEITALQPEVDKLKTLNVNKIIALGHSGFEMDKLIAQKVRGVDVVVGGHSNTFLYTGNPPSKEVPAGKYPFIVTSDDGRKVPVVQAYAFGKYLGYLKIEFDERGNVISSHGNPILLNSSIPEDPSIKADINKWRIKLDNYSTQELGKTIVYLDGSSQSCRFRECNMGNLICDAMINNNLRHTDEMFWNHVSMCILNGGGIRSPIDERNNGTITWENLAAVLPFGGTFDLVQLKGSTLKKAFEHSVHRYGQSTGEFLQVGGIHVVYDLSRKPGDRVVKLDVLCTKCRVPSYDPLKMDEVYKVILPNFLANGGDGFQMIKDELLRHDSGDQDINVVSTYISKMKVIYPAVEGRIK

| Compound | IC50 [nM] |
| --- | --- |
| C#C[C@@]1(O)[C@@H](COC(Cc2ccccc2)(C(=O)O)C(=O)O)O[C@@H](n2cnc3c(NC(C)C)cc(Cl)nc32)[C@@H]1O [Example 30, 2-benzyl-2-(((2R,3S,4R,5R)-5-(5-chloro-7-(isopropylamino)-3H-imidazo[4,5-b]pyridin-3-yl)-3-ethynyl-3,4-dihydroxytetrahydrofuran-2-yl)methoxy)malonic acid] | 5 |
| C#C[C@@]1(O)[C@@H](COC(Cc2ccccc2)(C(=O)O)C(=O)O)O[C@@H](n2cnc3c(N(C)C)nc(Cl)nc32)[C@@H]1O [Example 31, 2-benzyl-2-(((2R,3S,4R,5R)-5-(2-chloro-6-(dimethylamino)-9H-purin-9-yl)-3-ethynyl-3,4-dihydroxytetrahydrofuran-2-yl)methoxy)malonic acid] | 2 |
| C#C[C@@]1(O)[C@@H](COC(Cc2ccccc2)(C(=O)O)C(=O)O)O[C@@H](n2cnc3c(NCCCO)nc(Cl)nc32)[C@@H]1O [Example 34, 2-benzyl-2-(((2R,3S,4R,5R)-5-(2-chloro-6-((3-hydroxypropyl)amino)-9H-purin-9-yl)-3-ethynyl-3,4-dihydroxytetrahydrofuran-2-yl)methoxy)malonic acid] | 2 |
| C#C[C@@]1(O)[C@@H](COC(Cc2ccccc2)(C(=O)O)C(=O)O)O[C@@H](n2cnc3c(N(CCO)CCO)nc(Cl)nc32)[C@@H]1O [Example 37, 2-benzyl-2-(((2R,3S,4R,5R)-5-(6-(bis(2-hydroxyethyl)amino)-2-chloro-9H-purin-9-yl)-3-ethynyl-3,4-dihydroxytetrahydrofuran-2-yl)methoxy)malonic acid] | 6 |
| C#C[C@@]1(O)[C@@H](COC(Cc2ccccc2)(C(=O)O)C(=O)O)O[C@@H](n2cnc3c(NCCOC)nc(Cl)nc32)[C@@H]1O [Example 38, 2-benzyl-2-(((2R,3S,4R,5R)-5-(2-chloro-6-((2-methoxyethyl)amino)-9H-purin-9-yl)-3-ethynyl-3,4-dihydroxytetrahydrofuran-2-yl)methoxy)malonic acid] | 3 |
| C#C[C@@]1(O)[C@@H](COC(Cc2ccccc2)(C(=O)O)C(=O)O)O[C@@H](n2cnc3c(NC4(CO)CC4)nc(Cl)nc32)[C@@H]1O [Example 43, 2-benzyl-2-(((2R,3S,4R,5R)-5-(2-chloro-6-((1-(hydroxymethyl)-cyclopropyl)amino)-9H-purin-9-yl)-3-ethynyl-3,4-dihydroxytetrahydrofuran-2-yl)methoxy)malonic acid] | 2 |
| C#C[C@@]1(O)[C@@H](COC(Cc2ccccc2)(C(=O)O)C(=O)O)O[C@@H](n2cnc3c(NCC4(O)CC4)nc(Cl)nc32)[C@@H]1O [Example 44, 2-benzyl-2-(((2R,3S,4R,5R)-5-(2-chloro-6-(((1-hydroxycyclopropyl)-methyl)amino)-9H-purin-9-yl)-3-ethynyl-3,4-dihydroxytetrahydrofuran-2-yl)methoxy)malonic acid] | 62 |
| C#C[C@@]1(O)[C@@H](COC(Cc2ccccc2)(C(=O)O)C(=O)O)O[C@@H](n2cnc3c(N4CC(C)(O)C4)nc(Cl)nc32)[C@@H]1O [Example 47, 2-benzyl-2-(((2R,3S,4R,5R)-5-(2-chloro-6-(3-hydroxy-3-methylazetidin-1-yl)-9H-purin-9-yl)-3-ethynyl-3,4-dihydroxytetrahydrofuran-2-yl)methoxy)malonic acid] | 2 |

More lines, in order of falling IC50, values ahead:

| IC50 [nM] | Compound |
| --- | --- |
| 4 | C#C[C@@]1(O)[C@@H](COC(Cc2ccccc2)(C(=O)O)C(=O)O)O[C@@H](n2cnc3c(NC[C@@H](C)O)nc(Cl)nc32)[C@@H]1O [Example 35, 2-benzyl-2-(((2R,3S,4R,5R)-5-(2-chloro-6-(((R)-2-hydroxypropyl)amino)-9H-purin-9-yl)-3-ethynyl-3,4-dihydroxytetrahydrofuran-2-yl)methoxy)malonic acid] |
| 4 | C#C[C@@]1(O)[C@@H](COC(Cc2ccccc2)(C(=O)O)C(=O)O)O[C@@H](n2cnc3c(NC[C@H](C)O)nc(Cl)nc32)[C@@H]1O [Example 36, 2-benzyl-2-(((2R,3S,4R,5R)-5-(2-chloro-6-(((S)-2-hydroxypropyl)amino)-9H-purin-9-yl)-3-ethynyl-3,4-dihydroxytetrahydrofuran-2-yl)methoxy)malonic acid] |
| 3 | C#C[C@@]1(O)[C@@H](COC(Cc2ccsc2)(C(=O)O)C(=O)O)O[C@@H](n2cnc3c(NCCO)nc(Cl)nc32)[C@@H]1O [Example 32, 2-(((2R,3S,4R,5R)-5-(2-chloro-6-((2-hydroxyethyl)amino)-9H-purin-9-yl)-3-ethynyl-3,4-dihydroxytetrahydrofuran-2-yl)methoxy)-2-(thiophen-3-ylmethyl)malonic acid] |
| 3 | C#C[C@@]1(O)[C@@H](COC(Cc2ccccc2)(C(=O)O)C(=O)O)O[C@@H](n2cnc3c(N(C)CCOC)nc(Cl)nc32)[C@@H]1O [Example 39, 2-benzyl-2-(((2R,3S,4R,5R)-5-(2-chloro-6-((2-methoxyethyl)-(methyl)amino)-9H-purin-9-yl)-3-ethynyl-3,4-dihydroxytetrahydrofuran-2-yl)methoxy)malonic acid] |
| 3 | C#C[C@@]1(O)[C@@H](COC(Cc2ccccc2)(C(=O)O)C(=O)O)O[C@@H](n2cnc3c(NCC4(O)CCC4)nc(Cl)nc32)[C@@H]1O [Example 40, 2-benzyl-2-(((2R,3S,4R,5R)-5-(2-chloro-6-(((1-hydroxycyclobutyl)-methyl)amino)-9H-purin-9-yl)-3-ethynyl-3,4-dihydroxytetrahydrofuran-2-yl)methoxy)malonic acid] |
| 2 | C#C[C@@]1(O)[C@@H](COC(Cc2ccsc2)(C(=O)O)C(=O)O)O[C@@H](n2cnc3c(NC(C)C)nc(Cl)nc32)[C@@H]1O [Example 33, 2-(((2R,3S,4R,5R)-5-(2-chloro-6-(isopropylamino)-9H-purin-9-yl)-3-ethynyl-3,4-dihydroxytetrahydrofuran-2-yl)methoxy)-2-(thiophen-3-ylmethyl)malonic acid] |
| 1 | C#C[C@@]1(O)[C@@H](COC(Cc2ccccc2)(C(=O)O)C(=O)O)O[C@@H](n2cnc3c(N4CCC4CO)nc(Cl)nc32)[C@@H]1O (stereo partly drawn) [Example 42, 2-benzyl-2-(((2R,3S,4R,5R)-5-(2-chloro-6-(2-(hydroxymethyl)azetidin-1-yl)-9H-purin-9-yl)-3-ethynyl-3,4-dihydroxytetrahydrofuran-2-yl)methoxy)malonic acid] |
| 1 | C#C[C@@]1(O)[C@@H](COC(Cc2ccccc2)(C(=O)O)C(=O)O)O[C@@H](n2cnc3c(NCC4CCC4)nc(Cl)nc32)[C@@H]1O [Example 45, 2-benzyl-2-(((2R,3S,4R,5R)-5-(2-chloro-6-((cyclobutylmethyl)amino)-9H-purin-9-yl)-3-ethynyl-3,4-dihydroxytetrahydrofuran-2-yl)methoxy)malonic acid] |
| 1 | C#C[C@@]1(O)[C@@H](COC(Cc2ccccc2)(C(=O)O)C(=O)O)O[C@@H](n2cnc3c(N4CC(CO)C4)nc(Cl)nc32)[C@@H]1O [Example 46, 2-benzyl-2-(((2R,3S,4R,5R)-5-(2-chloro-6-(3-(hydroxymethyl)azetidin-1-yl)-9H-purin-9-yl)-3-ethynyl-3,4-dihydroxytetrahydrofuran-2-yl)methoxy)malonic acid] |
| 0.6 | C#C[C@@]1(O)[C@@H](COC(Cc2ccccc2)(C(=O)O)C(=O)O)O[C@@H](n2cnc3c(N4CC(O)C4)nc(Cl)nc32)[C@@H]1O [Example 41, 2-benzyl-2-(((2R,3S,4R,5R)-5-(2-chloro-6-(3-hydroxyazetidin-1-yl)-9H-purin-9-yl)-3-ethynyl-3,4-dihydroxytetrahydrofuran-2-yl)methoxy)malonic acid] |
